According to patent publication US20230091225A1, “Bifunctional chimeric heterocyclic compounds for targeted degradation of androgen receptors and use thereof” (HINOVA PHARMACEUTICALS INC., priority 2019, published 2023):
pIC50: −log10 of the molar value. Where two headings read alike, the source gives them in different places.

Legend:
androgen receptor (AR) = molecular target: T1, androgen receptor (AR) (Homo sapiens, UniProt P10275); assay: Degradation of androgen receptor (AR) protein in VCaP cells by ELISA; format: cell-based; settings: percentage of degraded AR at 100 nM, VCaP cells, 16 h, ELISA; read-out: % degradation
T1 sequence (P10275 1-920): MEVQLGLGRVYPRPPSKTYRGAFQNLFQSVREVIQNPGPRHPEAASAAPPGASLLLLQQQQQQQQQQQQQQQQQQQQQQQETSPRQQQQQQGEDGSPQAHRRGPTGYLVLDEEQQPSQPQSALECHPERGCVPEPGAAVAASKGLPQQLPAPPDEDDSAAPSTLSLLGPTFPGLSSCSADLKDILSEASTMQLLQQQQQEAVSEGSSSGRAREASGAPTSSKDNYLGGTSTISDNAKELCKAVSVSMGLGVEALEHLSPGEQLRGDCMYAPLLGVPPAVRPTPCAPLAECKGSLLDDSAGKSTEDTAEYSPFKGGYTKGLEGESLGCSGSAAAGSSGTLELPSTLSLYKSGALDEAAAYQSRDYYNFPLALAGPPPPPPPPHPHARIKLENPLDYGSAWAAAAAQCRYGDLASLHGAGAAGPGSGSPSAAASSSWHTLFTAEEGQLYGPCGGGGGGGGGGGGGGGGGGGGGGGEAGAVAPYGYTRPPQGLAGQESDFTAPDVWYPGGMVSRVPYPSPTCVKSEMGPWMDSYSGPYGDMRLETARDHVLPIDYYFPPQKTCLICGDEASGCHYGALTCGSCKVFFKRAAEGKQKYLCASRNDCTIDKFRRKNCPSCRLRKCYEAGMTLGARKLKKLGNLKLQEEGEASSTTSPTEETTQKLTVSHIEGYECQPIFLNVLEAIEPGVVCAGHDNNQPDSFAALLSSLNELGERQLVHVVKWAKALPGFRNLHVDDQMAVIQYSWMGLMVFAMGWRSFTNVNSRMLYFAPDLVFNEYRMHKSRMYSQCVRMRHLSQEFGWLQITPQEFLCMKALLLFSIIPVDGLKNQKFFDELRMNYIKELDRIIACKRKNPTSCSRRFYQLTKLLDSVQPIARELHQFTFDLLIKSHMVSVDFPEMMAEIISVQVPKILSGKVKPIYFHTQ

LNCaP/AR cells = assay: Inhibition of proliferation of LNCaP/AR prostate cancer cells (CCK-8); format: cell-based; settings: 144 h
[1] = proliferation of LNCap/AR cells, 6 days, CCK-8, read-out: IC50

| SMILES | inhibition at 0.1 µM (androgen receptor (AR)) [%] | pIC50 (LNCaP/AR cells; [1]) | pIC50 (LNCaP/AR cells; LNCaP/AR) |
| --- | --- | --- | --- |
| Cc1ncsc1-c1ccc([C@H](C)NC(=O)[C@@H]2C[C@@H](O)CN2C(=O)[C@@H](NC(=O)CCn2cc(C#Cc3ccc4c(c3)CN([C@H]3C(C)(C)[C@H](Oc5ccc(C#N)c(Cl)c5)C3(C)C)C4=O)cn2)C(C)(C)C)cc1 [Compound 42] | 50 to 79 | > 7.00 |  |
| Cc1ncsc1-c1ccc([C@H](CO)NC(=O)[C@@H]2C[C@@H](O)CN2C(=O)[C@@H](NC(=O)COCCCCC#Cc2ccc3c(c2)CN([C@H]2C(C)(C)[C@H](Oc4ccc(C#N)c(Cl)c4)C2(C)C)C3=O)C(C)(C)C)cc1 [Compound 48, (2S,4R)-1-((S)-2-(2-((6-(2-(((1r,3r)-3-(3-chloro-4-cyanophenoxy))-2,2,4,4-tetramethylcyclobutyl)-1-oxoisoindolin-5-yl)hex-5-yn-1-yl)oxy)acetamido)-3,3-dimethylbutyryl)-4-hydroxy-N-((R)-2-hydroxy-1-(4-(4-methylthiazol-5-yl)phenyl)ethyl)pyrrolidine-2-carboxamide] | > 80 | > 7.00 |  |
| Cc1ncsc1-c1ccc(C2(NC(=O)[C@H]3C[C@@H](O)CN3C(=O)[C@@H](NC(=O)COCCCCC#Cc3ccc(C(=O)N[C@H]4C(C)(C)[C@H](Oc5ccc(C#N)c(Br)c5)C4(C)C)cc3)C(C)(C)C)CC2)cc1 [Compound 9, (2R,4R)-1-((S)-2-(2-((6-(4-(((1R,3R)-3-(3-bromo-4-cyanophenoxy)-2,2,4,4-tetramethylcyclobutyl)carbamoyl)phenyl)hex-5-yn-1-yl)oxy)acetylamino)-3,3-dimethylbutyryl)-4-hydroxy-N-(1-(4-(4-methyl-5-yl)phenyl)cyclopropyl) pyrrolidine-2-carboxamide] | > 80 | > 7.00 |  |
| CC1(C)[C@H](Oc2ccc(C#N)c(Cl)c2)C(C)(C)[C@H]1N1Cc2nc(N3CCC(CN4CCN(c5cc6c(cc5F)C(=O)N(C5CCC(=O)NC5=O)C6=O)CC4)CC3)ccc2C1=O (stereo partly drawn) [Compound 198] | 50 to 79 | 6.30 to 7.00 |  |
| CC(=O)O[C@@H]1C[C@@H](C(=O)N[C@@H](C)c2ccc(-c3scnc3C)cc2)N(C(=O)[C@@H](NC(=O)COCCCCCNc2ccc3c(c2)C(=O)N([C@H]2C(C)(C)[C@H](Oc4ccc(C#N)c(Cl)c4)C2(C)C)C3)C(C)(C)C)C1 [Compound 6, (3R,5S)-1-((S)-2-(2-((5-((2-((1R,3R)-3-(3-chloro-4-cyanophenoxy)-2,2,4,4-tetramethylcyclobutyl)-3-oxoisoindolin-5-yl)amino)pentyl)oxy)acetylamino)-3,3-dimethylbutyryl)-5-(((S)-1-(4-(4-methylthiazol-5)-yl)phenyl)ethyl)carbamoyl) pyrrolidin-3-yl acetate] | 50 to 79 |  | > 7.00 |
| N#Cc1ccc(O[C@H]2CC[C@H](N3Cc4nc(N5CCC(CN6CCN(c7ccc8c(c7)C(=O)N(C7CCC(=O)NC7=O)C8=O)CC6)CC5)ccc4C3=O)CC2)cc1Cl (stereo partly drawn) [Compound 201] | 50 to 79 | < 6.00 |  |
| Cc1ncsc1-c1ccc([C@H](C)NC(=O)[C@@H]2C[C@@H](O)CN2C(=O)[C@@H](NC(=O)COCCCCCNc2ccc3c(c2)C(=O)N([C@H]2C(C)(C)[C@H](Oc4ccc(C#N)c(Cl)c4)C2(C)C)C3)C(C)(C)C)cc1 [Compound 7, (2S,4R)-1-((S)-2-(2-((5-((2-((1R,3R)-3-(3-chloro-4-cyanophenoxy)-2,2,4,4-tetramethylcyclobutyl)-3-oxoisoindolin-5-yl)amino)pentyl)oxy)acetylamino)-3,3-dimethylbutyryl)-4-hydroxy-N-((S)-1-(4-(4-methylthiazol-5-yl)phenyl)ethyl) pyrrolidine-2-carboxamide] | 50 to 79 | > 7.00 |  |
| CC1(C)[C@H](Oc2ccc(C#N)c(Cl)c2)C(C)(C)[C@H]1N1Cc2cc(C#CC3CCN(C4CCN(c5cc6c(cc5F)C(=O)N(C5CCC(=O)NC5=O)C6=O)CC4)CC3)ccc2C1=O (stereo partly drawn) [Compound 51] | 50 to 79 | 6.30 to 7.00 |  |
| N#Cc1ccc(O[C@H]2CC[C@H](N3Cc4nc(N5CCN(CC6CCN(c7cc8c(cc7F)C(=O)N(C7CCC(=O)NC7=O)C8=O)CC6)CC5)ccc4C3=O)CC2)cc1Cl (stereo partly drawn) [Compound 210] | < 25 | < 6.00 |  |
